Drawing on US20240317721A1, “PYRAZOLYL DERIVATIVES AS INHIBITORS OF THE KRAS MUTANT PROTEIN” (NOVARTIS AG, priority 2021, published 2024), this text covers IC50 for 28 compounds.

Where only a bound is given, the exact number is not on record here.

This assay concerns the target KRasG12C (M1-K169, biotinylated on the N-terminus) (Homo sapiens (Human), UniProt P01116, G12C). Kind of assay: Covalent competition assay: scintillation proximity assay (SPA) quantifying covalent modification of KRASG12C. Type of assay: binding. Particulars: competition with radiolabeled covalent probe (Compound B/Compound A), 2 hours incubation, 10 nM KRasG12C. Put shortly:
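Test compounds compete with a radiolabeled covalent probe for modification of N-terminally biotinylated KRasG12C(M1-K169):GDP, final 10 nM protein, 25 nM radio-ligand, 475 nM unlabelled ligand, 2 h with agitation in 20 mM Tris-HCl pH 7.5, 150 mM NaCl, 0.1 mM MgCl2, 0.01% Tween-20.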
(In general: SPA uses beads or plates that emit light when radiolabelled molecules are held near them.)
One may read the IC50 as the point on the concentration scale where inhibition reaches its midpoint. Consider `C=CC(=O)N1CC2(CC(n3nc(N4CC[C@@H](CN5CCOCC56COC6)CC4(C)C)c(-c4c(C)c(Cl)cc5[nH]ncc45)c3C)C2)C1` (single isomer, unassigned) [Example 302a], for which the IC50 was > 5000 nM. With `C=CC(=O)N1CC2(CC(n3nc(N4CCN(C[C@@H]5COCCO5)C[C@]4(C)CC)c(-c4c(Cl)cnc5[nH]ncc45)c3C)C2)C1` (single isomer, unassigned) [Example 81a] the figure was > 5000 nM. The value for `C=CC(=O)N1CC2(CCC(n3nc(N4CCN(C(C)=O)CC4)c(-c4c(Cl)ccc5[nH]ncc45)c3C)C2)C1` (single isomer, unassigned) [Example 53a, 1-(6-(3-(4-acetylpiperazin-1-yl)-4-(5-chloro-1H-indazol-4-yl)-5-methyl-1H-pyrazol-1-yl)-2-azaspiro[3.4]octan-2-yl)prop-2-en-1-one] was 4900 nM. With `CC#CC(=O)N1CC2(CC(n3nc(N4CCN(C5COC5)CC45CCC5)c(-c4c(Cl)c(C)cc5[nH]ncc45)c3C)C2)C1` (single isomer, unassigned) [Example 78a, 1-(6-(4-(5-chloro-6-methyl-1H-indazol-4-yl)-5-methyl-3-(8-(oxetan-3-yl)-5,8-diazaspiro[3.5]nonan-5-yl)-1H-pyrazol-1-yl)-2-azaspiro[3.3]heptan-2-yl)but-2-yn-1-one] the figure was 1300 nM; with `C=CC(=O)N1CC2(CC(n3nc(N4CCCC4(C)C)c(-c4c(Cl)c(C)cc5[nH]ncc45)c3C)C2)C1` (single isomer, unassigned) [Example 88a, 1-(6-(4-(5-chloro-6-methyl-1H-indazol-4-yl)-3-(2,2-dimethylpyrrolidin-1-yl)-5-methyl-1H-pyrazol-1-yl)-2-azaspiro[3.3]heptan-2-yl)prop-2-en-1-one], > 5000 nM; with `C=CC(=O)N1CC2(CC(n3nc(N4CC[C@@H](CN5CCOC6CS(=O)(=O)CC65)CC4(C)C)c(-c4c(Cl)c(Cl)cc5[nH]ncc45)c3C)C2)C1` (single isomer, unassigned) [Example 266b, 1-(6-(4-(5,6-dichloro-1H-indazol-4-yl)-3-((R)-4-(((4aR*,7aS*)-6,6-dioxidohexahydro-4H-thieno[3,4-b][1,4]oxazin-4-yl)methyl)-2,2-dimethylpiperidin-1-yl)-5-methyl-1H-pyrazol-1-yl)-2-azaspiro[3.3]heptan-2-yl)prop-2-en-1-one], 7 nM. In the case of `C=CC(=O)N1CC2(CC(n3nc(N4CCn5nccc5C4)c(-c4c(Cl)c(C)cc5[nH]ncc45)c3C)C2)C1` (single isomer, unassigned) [Example 10a, 1-(6-(4-(5-Chloro-6-methyl-1H-indazol-4-yl)-3-(6,7-dihydropyrazolo[1,5-a]pyrazin-5(4H)-yl)-5-methyl-1H-pyrazol-1-yl)-2-azaspiro[3.3]heptan-2-yl)prop-2-en-1-one], the IC50 turned out to be 50000 nM. With `C=CC(=O)N1CC2(CC(n3nc(N4CCn5nccc5C4C)c(-c4c(Cl)c(C)cc5[nH]ncc45)c3C)C2)C1` (single isomer, unassigned) [Example 41b, 1-(6-(4-(5-chloro-6-methyl-1H-indazol-4-yl)-5-methyl-3-(4-methyl-6,7-dihydropyrazolo[1,5-a]pyrazin-5(4H)-yl)-1H-pyrazol-1-yl)-2-azaspiro[3.3]heptan-2-yl)prop-2-en-1-one] the figure was 149 nM; with `C=CC(=O)N1CC2(CC(n3nc(N4CCN(C5CCCOC5)C[C@]4(C)CC)c(-c4c(Cl)c(C)cc5[nH]ncc45)c3C)C2)C1` (single isomer, unassigned) [Example 157c], 6 nM. In the case of `C=CC(=O)N1CC2(CC(n3nc(N4CC[C@@H](CN5CCN(C6COC6)CC5)CC4(C)C)c(-c4c(Cl)ccc5[nH]ncc45)c3C)C2)C1` (single isomer, unassigned) [Example 255b], the IC50 was 84 nM. The value for `C=CC(=O)N1CC2(CC(n3nc(N4CCN(CC(C)(C)O)CC45CCC5)c(-c4c(Cl)c(F)cc5[nH]ncc45)c3C)C2)C1` (single isomer, unassigned) [Example 167a, 1-(6-(4-(5-chloro-6-fluoro-1H-indazol-4-yl)-3-(8-(2-hydroxy-2-methylpropyl)-5,8-diazaspiro[3.5]nonan-5-yl)-5-methyl-1H-pyrazol-1-yl)-2-azaspiro[3.3]heptan-2-yl)prop-2-en-1-one] was > 5000 nM; that for `C=CC(=O)N1CC2(CC(n3nc(N4CCC(CN5CC6CC(C5)O6)CC4(C)C)c(-c4c(Cl)c(Cl)cc5[nH]ncc45)c3C)C2)C1` (single isomer, unassigned) [Example 229b, 1-(6-(3-(4-((6-oxa-3-azabicyclo[3.1.1]heptan-3-yl)methyl)-2,2-dimethylpiperidin-1-yl)-4-(5,6-dichloro-1H-indazol-4-yl)-5-methyl-1H-pyrazol-1-yl)-2-azaspiro[3.3]heptan-2-yl)prop-2-en-1-one] was 11 nM; that for `C=CC(=O)N1CC2(CC(n3nc(N4CC[C@@H](OCCN5CCOCC5)CC4(C)C)c(-c4c(Cl)c(Cl)cc5[nH]ncc45)c3C)C2)C1` (single isomer, unassigned) [Example 110b] was 10 nM. With `C=CC(=O)N1CC2(CC(n3nc(N4CCN(C5COC5)CC45CCC5)c(-c4c(Cl)c(C)cc5[nH]nc(N)c45)c3C)C2)C1` (single isomer, unassigned) [Example 114a, 1-(6-(4-(3-amino-5-chloro-6-methyl-1H-indazol-4-yl)-5-methyl-3-(8-(oxetan-3-yl)-5,8-diazaspiro[3.5]nonan-5-yl)-1H-pyrazol-1-yl)-2-azaspiro[3.3]heptan-2-yl)prop-2-en-1-one] the figure was 7 nM; with `C=CC(=O)N1CC2(CC(n3nc(N4CC[C@@H](CN5CC6CCC(C5)O6)CC4(C)C)c(-c4c(Cl)c(Cl)cc5[nH]ncc45)c3C)C2)C1` (single isomer, unassigned) [Example 314b], 52 nM; with `C=CC(=O)N1CC2(CC(n3nc(N4CCN(C(=O)COC)CC45CCC5)c(-c4c(Cl)c(C)cc5[nH]ncc45)c3C)C2)C1` (single isomer, unassigned) [Example 123b, 1-(6-(4-(5-chloro-6-methyl-1H-indazol-4-yl)-3-(8-(2-methoxyacetyl)-5,8-diazaspiro[3.5]nonan-5-yl)-5-methyl-1H-pyrazol-1-yl)-2-azaspiro[3.3]heptan-2-yl)prop-2-en-1-one], 21 nM. With `C=CC(=O)N1CC2(CC(n3nc(N4CCC(CN5C[C@@H]6C[C@H]5CO6)CC4(C)C)c(-c4c(Cl)c(Cl)cc5[nH]ncc45)c3C)C2)C1` (single isomer, unassigned) [Example 217b] the figure was 8 nM.

Turning to `C=CC(=O)N1CC2(CC(n3nc(N4CC[C@@H](CN5CCOC6(COC6)C5)CC4(C)C)c(-c4c(Cl)c(C)cc5[nH]ncc45)c3C)C2)C1` (single isomer, unassigned) [Example 299b], the IC50 was 23 nM. Take `C=CC(=O)N1CC2(CC(n3nc(N4CCN(C5COC5)C[C@]4(C)CC)c(-c4c(Cl)c(Cl)cc5[nH]ncc45)c3C)C2)C1` (single isomer, unassigned) [Example 155b]: the IC50 came to 5 nM. The value for `C=C(F)C(=O)N1CC2(CC(n3nc(N4CCN(C[C@@H]5COCCO5)C[C@]4(C)COC)c(-c4c(Cl)c(Cl)cc5[nH]ncc45)c3C)C2)C1` (single isomer, unassigned) [Example 184a] was > 5000 nM. With `C=CC(=O)N1CC2(CC(n3nc(N4CC[C@@H](CN5CC6(CCCO6)C5)CC4(C)C)c(-c4c(Cl)c(Cl)cc5[nH]ncc45)c3C)C2)C1` (single isomer, unassigned) [Example 234a] the figure was 1000 nM.

As for `C=CC(=O)N1CC2(CC(n3nc(N4CCC(N5C[C@@H]6C[C@H]5CO6)CC4(C)C)c(-c4c(Cl)c(C)cc5[nH]ncc45)c3C)C2)C1` (single isomer, unassigned) [Example 83b], the IC50 came to 26 nM. For `C=CC(=O)N1CC2(CC(n3nc(N4CCN(C5COC5)C[C@@]4(C)COC)c(-c4c(Cl)c(C)cc5[nH]ncc45)c3C)C2)C1` (single isomer, unassigned) [Example 148a], the IC50 was > 5000 nM. `C=CC(=O)N1CC2(CC(n3nc(N4CCC5C(CC(=O)N5C)C4)c(-c4c(Cl)c(C)cc5[nH]ncc45)c3C)C2)C1` (single isomer, unassigned) [Example 39a, 5-(1-(2-acryloyl-2-azaspiro[3.3]heptan-6-yl)-4-(5-chloro-6-methyl-1H-indazol-4-yl)-5-methyl-1H-pyrazol-3-yl)-1-methyloctahydro-2H-pyrrolo[3,2-c]pyridin-2-one]: the half-inhibitory concentration (IC50) was 42100 nM. The value for `C=CC(=O)N1CC2(CC(n3nc(N4CC[C@@H](CN5CCN(C6COC6)CC5)CC4(C)C)c(-c4c(Cl)c(Cl)cc5[nH]ncc45)c3C)C2)C1` (single isomer, unassigned) [Example 243a] was 3800 nM; that for `C=CC(=O)N1CC2(CC(n3nc(N4CCC(N5CC(OC)C5)CC4(C)C)c(-c4c(Cl)c(Cl)cc5[nH]ncc45)c3C)C2)C1` (single isomer, unassigned) [Example 209b, 1-(6-(4-(5,6-dichloro-1H-indazol-4-yl)-3-(4-(3-methoxyazetidin-1-yl)-2,2-dimethylpiperidin-1-yl)-5-methyl-1H-pyrazol-1-yl)-2-azaspiro[3.3]heptan-2-yl)prop-2-en-1-one] was 12 nM. For `C=CC(=O)N1CC2(CC(n3nc(N4CC[C@@H](CN5CCOCC5)CC4(C)C)c(-c4c(Cl)c(C)cc5[nH]nc(C)c45)c3C#N)C2)C1` (single isomer, unassigned) [Example 225a], the IC50 was determined as 341 nM. The value for `C=CC(=O)N1CC2(CC(n3nc(N4CCN(CCOC(F)F)CC45CCC5)c(-c4c(Cl)c(C)cc5[nH]ncc45)c3C)C2)C1` (single isomer, unassigned) [Example 183a, 1-(6-(4-(5-chloro-6-methyl-1H-indazol-4-yl)-3-(8-(2-(difluoromethoxy)ethyl)-5,8-diazaspiro[3.5]nonan-5-yl)-5-methyl-1H-pyrazol-1-yl)-2-azaspiro[3.3]heptan-2-yl)prop-2-en-1-one] was > 5000 nM.
